Values after ≈ are worked out from the molar mass of the structure shown. Active and inactive are the calls of the source. The calls are words filed in the database; no cut-off is given here.
Key:
[1] = system: Staphylococcus aureus; test: Antibacterial activity against methicillin-sensitive Staphylococcus aureus 209P after 24 hrs by liquid dilution method; type: functional
[2] = system: Staphylococcus aureus; test: Antibacterial activity against methicillin-resistant Staphylococcus aureus isolate OM481 after 24 hrs by liquid dilution method; type: functional; details: isolate OM481, 24 h
[3] = system: Staphylococcus aureus; test: Antibacterial activity against methicillin-resistant Staphylococcus aureus isolate OM505 after 24 hrs by liquid dilution method; type: functional; details: isolate OM505, 24 h
[4] = system: Pseudomonas aeruginosa; test: Antibacterial activity against Pseudomonas aeruginosa PAO1 after 24 hrs by liquid dilution method; type: functional
[5] = system: Pseudomonas aeruginosa; test: Antibacterial activity against Pseudomonas aeruginosa PAO1 assessed as inhibition of green pigment formation; type: functional
[6] = biological target: T1, Albumin (Bos taurus, UniProt P02769); test: Binding affinity to bovine serum albumin assessed as retention time for compound-protein complex formation at 0.5 mg/ml by size exclusion chromatographic method (reference value: 16 mins); type: ADME; details: cattle
[7] = biological target: T1, Albumin; test: Binding affinity to bovine serum albumin by SDS-PAGE analysis; type: ADME; details: cattle, isolated protein
[8] = system: Staphylococcus aureus; test: Antibacterial activity against methicillin-sensitive Staphylococcus aureus 209P; type: functional
[9] = system: Staphylococcus aureus; test: Antibacterial activity against methicillin-resistant Staphylococcus aureus isolate OM481; type: functional
[10] = system: Staphylococcus aureus; test: Antibacterial activity against methicillin-resistant Staphylococcus aureus isolate OM505; type: functional

T1 sequence (P02769 whole entry): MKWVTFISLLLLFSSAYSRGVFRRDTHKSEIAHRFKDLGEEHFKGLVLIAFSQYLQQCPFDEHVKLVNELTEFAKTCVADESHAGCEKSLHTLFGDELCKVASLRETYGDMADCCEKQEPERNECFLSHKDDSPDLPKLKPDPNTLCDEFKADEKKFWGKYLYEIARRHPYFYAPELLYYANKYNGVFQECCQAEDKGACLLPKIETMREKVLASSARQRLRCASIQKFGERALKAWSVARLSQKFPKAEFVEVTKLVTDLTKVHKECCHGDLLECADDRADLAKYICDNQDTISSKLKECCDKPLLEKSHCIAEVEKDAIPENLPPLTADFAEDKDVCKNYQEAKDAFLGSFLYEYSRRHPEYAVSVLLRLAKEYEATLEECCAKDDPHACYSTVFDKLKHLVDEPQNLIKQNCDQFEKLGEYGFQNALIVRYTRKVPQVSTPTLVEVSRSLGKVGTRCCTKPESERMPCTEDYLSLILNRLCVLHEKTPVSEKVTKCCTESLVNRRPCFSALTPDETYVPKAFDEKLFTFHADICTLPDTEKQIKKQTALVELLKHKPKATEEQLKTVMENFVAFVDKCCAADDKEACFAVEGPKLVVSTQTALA

| Molecule | MIC [1] [µM] | MIC [2] [µM] | MIC [3] [µM] | MIC ([4]; PAO1, 24 h) [µM] | MIC [5] [µM] | Retention time [6] [min] | Activity [7] | inhibition [5] | further results |
| --- | --- | --- | --- | --- | --- | --- | --- | --- | --- |
| O=C(O[C@@H]1O[C@@H]2COC(=O)c3cc(O)c(O)c(O)c3-c3c(cc(Oc4c(C(=O)O[C@@H]5O[C@@H]6COC(=O)c7cc(O)c(O)c(O)c7-c7c(cc(Oc8c(C(=O)O[C@@H]9O[C@@H]%10COC(=O)c%11cc(O)c(O)c(O)c%11-c%11c(cc(O)c(O)c%11O)C(=O)O[C@H]%10[C@H](OC(=O)c%10cc(O)c(O)c(O)c%10)[C@H]9OC(=O)c9cc(O)c(O)c(O)c9)cc(O)c(O)c8O)c(O)c7O)C(=O)O[C@H]6[C@H](OC(=O)c6cc(O)c(O)c(O)c6)[C@H]5OC(=O)c5cc(O)c(O)c(O)c5)cc(O)c(O)c4O)c(O)c3O)C(=O)O[C@H]2[C@H](OC(=O)c2cc(O)c(O)c(O)c2)[C@H]1OC(=O)c1cc(O)c(O)c(O)c1)c1cc(O)c(O)c(O)c1 | 23 (≈ 64.7 µg/mL) | 91 (≈ 256 µg/mL) | 91 (≈ 256 µg/mL) | > 364 | 23 (≈ 64.7 µg/mL) | 9 to 12 | Active |  |  |
| O=C1OC[C@H]2O[C@H](O)[C@@H]3OC(=O)c4cc(O)c(O)c(O)c4-c4c(cc(O)c(O)c4O)C(=O)O[C@H]3[C@@H]2OC(=O)c2cc(O)c(O)c(O)c2-c2c1cc(O)c(O)c2O |  |  |  |  |  |  |  | Active |  |
| GENTAMICIN |  |  |  |  |  |  |  |  | MIC [4]: 17 µM |
| O=C(O[C@H]1[C@@H]2OC(=O)c3cc(Oc4c(C(=O)O)cc(O)c(O)c4O)c(O)c(O)c3-c3c(cc(O)c(O)c3O)C(=O)OC[C@H]2OC(O)[C@@H]1OC(=O)c1cc(O)c(O)c(O)c1)c1cc(O)c(O)c(O)c1 (some centres undefined) | 67 (≈ 64 µg/mL) | 34 (≈ 32.5 µg/mL) | 67 (≈ 64 µg/mL) | > 1070 | 34 (≈ 32.5 µg/mL) | 9 to 12 | Active |  |  |
| Cc1onc(-c2ccccc2)c1C(=O)N[C@@H]1C(=O)N2[C@@H]1SC(C)(C)[C@@H]2C(=O)O [OXACILLIN] | < 0.6 | 638 (≈ 256 µg/mL) | 319 (≈ 128 µg/mL) |  |  |  |  |  |  |
| O=C(O[C@@H]1O[C@@H]2COC(=O)c3cc(O)c(O)c(O)c3-c3c(cc(Oc4c(C(=O)O)cc(O)c(O)c4O)c(O)c3O)C(=O)O[C@H]2[C@H](OC(=O)c2cc(O)c(O)c(O)c2)[C@H]1OC(=O)c1cc(O)c(O)c(O)c1)c1cc(O)c(O)c(O)c1 | 58 (≈ 64.2 µg/mL) | 29 (≈ 32.1 µg/mL) | 58 (≈ 64.2 µg/mL) | > 926 | 29 (≈ 32.1 µg/mL) | 9 to 12 | Active |  |  |
| O=C(O[C@@H]1COC(=O)c2cc(O)c(O)c(O)c2-c2c(cc(O)c(O)c2O)C(=O)O[C@H]1[C@@H]1OC(=O)c2cc(O)c(O)c(O)c2-c2c(O)c(O)c(O)c3c2C(=O)O[C@H]1[C@H]3O)c1cc(O)c(O)c(O)c1 |  |  |  |  |  |  |  | Active |  |
| NCC[C@H](O)C(=O)N[C@@H]1C[C@H](N)[C@@H](O[C@H]2O[C@H](CN)[C@@H](O)[C@H](O)[C@H]2O)[C@H](O)[C@H]1O[C@H]1O[C@H](CO)[C@@H](O)[C@H](N)[C@H]1O [AMIKACIN] |  |  |  | 14 (≈ 8.2 µg/mL) |  |  |  |  |  |
| O=C(OC[C@H]1O[C@@H](OC(=O)c2cc(O)c(O)c(O)c2)[C@H](OC(=O)c2cc(O)c(O)c(O)c2)[C@@H](OC(=O)c2cc(O)c(O)c(O)c2)[C@@H]1OC(=O)c1cc(O)c(O)c(O)c1)c1cc(O)c(O)c(O)c1 [PENTAGALLOYL GLUCOSE] |  |  |  |  |  |  |  | Active | MIC [8]: 68 µM (≈ 64 µg/mL); MIC [9]: 68 µM (≈ 64 µg/mL); MIC [10]: 68 µM (≈ 64 µg/mL) |
| O=C(O[C@@H]1O[C@@H]2COC(=O)c3cc(O)c(O)c(O)c3-c3c(cc(Oc4c(C(=O)O[C@@H]5O[C@@H]6COC(=O)c7cc(O)c(O)c(O)c7-c7c(cc(O)c(O)c7O)C(=O)O[C@H]6[C@H](OC(=O)c6cc(O)c(O)c(O)c6)[C@H]5OC(=O)c5cc(O)c(O)c(O)c5)cc(O)c(O)c4O)c(O)c3O)C(=O)O[C@H]2[C@H](OC(=O)c2cc(O)c(O)c(O)c2)[C@H]1OC(=O)c1cc(O)c(O)c(O)c1)c1cc(O)c(O)c(O)c1 | 34 (≈ 63.8 µg/mL) | 34 (≈ 63.8 µg/mL) | 68 (≈ 128 µg/mL) | > 546 | 34 (≈ 63.8 µg/mL) | 9 to 12 | Active |  |  |

From ChEMBL document CHEMBL4130481, “Structures and Antibacterial Properties of Isorugosins H-J, Oligomeric Ellagitannins from Liquidambar formosana with Characteristic Bridging Groups between Sugar Moieties” (J Nat Prod, 2017)
